We go through 1 molecule from ChEMBL document CHEMBL5108047 (J Med Chem, 2022).

The nature of series [1]: AUC in CD-1 nude mouse at 80 mg/kg, po administered twice daily and measured on day 7 by HPLC-MS analysis. Format: ADME, organism-based. Details: time 7 day, dose 80 mg/kg, route po. The following applies: in vivo.
The test system of series [2] is HCT-116. The series can be described thus: Antiproliferative activity against BRCA2 knock out human HCT-116 cells assessed as inhibition of cell growth incubated for 12 to 14 days with media replacement for every 3 or 4 days. It counts as functional, cell-based.
The target in series [3] is T1, DNA polymerase subunit gamma-1 (Homo sapiens, UniProt P54098).
T1 sequence (P54098 whole entry): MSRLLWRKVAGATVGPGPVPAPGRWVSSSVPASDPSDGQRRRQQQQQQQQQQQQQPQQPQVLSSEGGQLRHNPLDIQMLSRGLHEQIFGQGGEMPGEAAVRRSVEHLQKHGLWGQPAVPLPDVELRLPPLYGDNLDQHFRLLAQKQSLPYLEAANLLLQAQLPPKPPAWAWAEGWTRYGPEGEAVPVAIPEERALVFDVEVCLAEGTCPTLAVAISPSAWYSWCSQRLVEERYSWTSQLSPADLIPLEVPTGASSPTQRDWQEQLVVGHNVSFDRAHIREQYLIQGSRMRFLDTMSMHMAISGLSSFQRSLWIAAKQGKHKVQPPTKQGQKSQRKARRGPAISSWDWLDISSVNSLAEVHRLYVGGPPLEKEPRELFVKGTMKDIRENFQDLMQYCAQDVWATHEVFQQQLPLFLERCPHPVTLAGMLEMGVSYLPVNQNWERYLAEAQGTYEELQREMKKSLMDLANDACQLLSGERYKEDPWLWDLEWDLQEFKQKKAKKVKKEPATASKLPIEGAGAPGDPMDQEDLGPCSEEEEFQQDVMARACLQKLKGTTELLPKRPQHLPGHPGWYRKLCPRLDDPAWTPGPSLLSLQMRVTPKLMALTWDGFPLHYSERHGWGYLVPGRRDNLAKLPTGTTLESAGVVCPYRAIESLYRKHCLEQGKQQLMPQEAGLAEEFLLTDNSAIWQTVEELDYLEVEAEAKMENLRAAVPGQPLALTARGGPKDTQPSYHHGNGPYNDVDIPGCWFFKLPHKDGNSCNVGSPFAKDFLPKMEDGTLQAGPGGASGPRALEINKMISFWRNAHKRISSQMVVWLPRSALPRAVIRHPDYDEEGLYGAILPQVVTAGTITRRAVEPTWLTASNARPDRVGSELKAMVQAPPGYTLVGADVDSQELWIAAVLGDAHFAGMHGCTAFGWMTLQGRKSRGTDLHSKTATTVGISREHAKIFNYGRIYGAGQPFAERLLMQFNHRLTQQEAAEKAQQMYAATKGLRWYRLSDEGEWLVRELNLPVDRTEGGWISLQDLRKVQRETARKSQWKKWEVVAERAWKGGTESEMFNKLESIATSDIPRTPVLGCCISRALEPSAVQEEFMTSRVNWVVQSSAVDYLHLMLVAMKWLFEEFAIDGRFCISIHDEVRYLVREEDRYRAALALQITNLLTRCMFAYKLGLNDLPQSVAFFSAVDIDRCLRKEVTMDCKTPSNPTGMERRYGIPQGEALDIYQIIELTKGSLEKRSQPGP
The series can be described thus: Inhibition of human DNA polymerase gamma.

Series [4] is described as follows: Inhibition of Alt-Ej-mediated DNA repair in LIG4 knock out HEK293T cells. Format: functional, cell-based, Homo sapiens. To be noted: hek-293t.
The nature of series [5]: Half-life in CD-1 mouse at 2.5 mg/kg, po or 2.5 mg/kg, iv measured upto 24 hrs by reverse phase LCMS analysis. It counts as ADME, organism-based. The following applies: in vivo.
Series [6] can be described thus: Oral bioavailability in CD-1 mouse at […] measured upto 24 hrs by reverse phase LCMS analysis. It counts as ADME, organism-based. To be noted: in vivo.
Series [7] can be described thus: Inhibition of MMEJ-mediated DNA repair in CRSIPRR/Cas9-induced wildtype human HCT-116 cells incubated for 24 hrs by PCR analysis. It counts as functional, cell-based.
Series [8] addresses T2, DNA polymerase theta (Homo sapiens, UniProt O75417). The series can be described thus: Inhibition of DNA polymerase theta in LIG4 knock out HEK293T cells assessed as decrease in MMEJ-mediated DNA repair preincubated for 1 day followed by lentivirus solution addition for 24 hrs prior to media replacement with compound and measured after 96 hrs by flow cytometry based traffic-light reporter assay. It counts as cell-based. (In general: Flow cytometry measures light scatter and fluorescence of single cells or particles in a stream.)

Series [9] can be described thus: Toxicity in CD-1 mouse xenografted with BRCA2 knock in human HCT-116 cells assessed as body weight loss at 80 mg/kg, po administered twice a day for 21 days. It counts as organism-based. To be noted: in vivo, 504 h, time 21 day. Background: A xenograft is tissue or cells of one species grown in another, often human tumour cells in immunodeficient mice.
The nature of series [10]: Toxicity in CD-1 mouse xenografted with BRCA2 knock out human HCT-116 cells assessed as drug tolerance at 80 mg/kg, po administered twice a day for 21 days. Format: organism-based. The following applies: in vivo, 504 h, time 21 day.
Series [11] concerns HCT-116. The series can be described thus: Antiproliferative activity against BRCA2 knock in human HCT-116 cells assessed as inhibition of cell growth incubated for 7 days with media replacement for every 3 or 4 days. Format: functional, cell-based.
Series [12] is described as follows: AUC in CD-1 mouse at 20 mg/kg, po measured upto 24 hrs by reverse phase LCMS analysis. Format: ADME, organism-based. Also on record: time < 24 hrs, dose 20 mg/kg, route po. To be noted: in vivo.
Series [13] in a line: Toxicity in CD-1 mouse xenografted with BRCA2 knock in human HCT-116 cells assessed as drug tolerance at 80 mg/kg, po administered twice a day for 21 days. It counts as organism-based. The following applies: in vivo, 504 h, time 21 day.
A short description of series [14]: Toxicity in CD-1 mouse xenografted with BRCA2 knock out human HCT-116 cells assessed as body weight loss at 80 mg/kg, po administered twice a day for 21 days. Format: organism-based. To be noted: in vivo, 504 h, time 21 day.
Series [15] is described as follows: Volume of distribution at steady state in CD-1 mouse at 2.5 mg/kg, po or 2.5 mg/kg, iv measured upto 24 hrs by reverse phase LCMS analysis. To be noted: in vivo. Format: ADME, organism-based.
A short description of series [16]: AUC in CD-1 nude mouse at 80 mg/kg, po administered twice daily and measured on day 1 by HPLC-MS analysis. To be noted: in vivo. Details: dose 80 mg/kg, time 1 day, route po. Format: ADME, organism-based.
The nature of series [17]: fCaverage in CD-1 mouse. It counts as ADME.
Series [18] has as its target T2, DNA polymerase theta. The series can be described thus: Inhibition of N-terminal His8-tagged/C-terminal FLAG-tagged full length human DNA polymerase theta ( 1 to 2590 residues) polymerase activity expressed in HEK2936E cells. Format: cell-based.

What is called AUC is the area under the concentration-time curve, a measure of exposure. A higher AUC goes with high exposure. By IC50 is commonly meant the point on the concentration scale where inhibition reaches its midpoint. Broadly, the bioavailability is the share of a dose that reaches the circulation, judged against a reference dose that is usually intravenous. Read a low bioavailability as little systemic uptake.

T2 sequence (O75417 whole entry): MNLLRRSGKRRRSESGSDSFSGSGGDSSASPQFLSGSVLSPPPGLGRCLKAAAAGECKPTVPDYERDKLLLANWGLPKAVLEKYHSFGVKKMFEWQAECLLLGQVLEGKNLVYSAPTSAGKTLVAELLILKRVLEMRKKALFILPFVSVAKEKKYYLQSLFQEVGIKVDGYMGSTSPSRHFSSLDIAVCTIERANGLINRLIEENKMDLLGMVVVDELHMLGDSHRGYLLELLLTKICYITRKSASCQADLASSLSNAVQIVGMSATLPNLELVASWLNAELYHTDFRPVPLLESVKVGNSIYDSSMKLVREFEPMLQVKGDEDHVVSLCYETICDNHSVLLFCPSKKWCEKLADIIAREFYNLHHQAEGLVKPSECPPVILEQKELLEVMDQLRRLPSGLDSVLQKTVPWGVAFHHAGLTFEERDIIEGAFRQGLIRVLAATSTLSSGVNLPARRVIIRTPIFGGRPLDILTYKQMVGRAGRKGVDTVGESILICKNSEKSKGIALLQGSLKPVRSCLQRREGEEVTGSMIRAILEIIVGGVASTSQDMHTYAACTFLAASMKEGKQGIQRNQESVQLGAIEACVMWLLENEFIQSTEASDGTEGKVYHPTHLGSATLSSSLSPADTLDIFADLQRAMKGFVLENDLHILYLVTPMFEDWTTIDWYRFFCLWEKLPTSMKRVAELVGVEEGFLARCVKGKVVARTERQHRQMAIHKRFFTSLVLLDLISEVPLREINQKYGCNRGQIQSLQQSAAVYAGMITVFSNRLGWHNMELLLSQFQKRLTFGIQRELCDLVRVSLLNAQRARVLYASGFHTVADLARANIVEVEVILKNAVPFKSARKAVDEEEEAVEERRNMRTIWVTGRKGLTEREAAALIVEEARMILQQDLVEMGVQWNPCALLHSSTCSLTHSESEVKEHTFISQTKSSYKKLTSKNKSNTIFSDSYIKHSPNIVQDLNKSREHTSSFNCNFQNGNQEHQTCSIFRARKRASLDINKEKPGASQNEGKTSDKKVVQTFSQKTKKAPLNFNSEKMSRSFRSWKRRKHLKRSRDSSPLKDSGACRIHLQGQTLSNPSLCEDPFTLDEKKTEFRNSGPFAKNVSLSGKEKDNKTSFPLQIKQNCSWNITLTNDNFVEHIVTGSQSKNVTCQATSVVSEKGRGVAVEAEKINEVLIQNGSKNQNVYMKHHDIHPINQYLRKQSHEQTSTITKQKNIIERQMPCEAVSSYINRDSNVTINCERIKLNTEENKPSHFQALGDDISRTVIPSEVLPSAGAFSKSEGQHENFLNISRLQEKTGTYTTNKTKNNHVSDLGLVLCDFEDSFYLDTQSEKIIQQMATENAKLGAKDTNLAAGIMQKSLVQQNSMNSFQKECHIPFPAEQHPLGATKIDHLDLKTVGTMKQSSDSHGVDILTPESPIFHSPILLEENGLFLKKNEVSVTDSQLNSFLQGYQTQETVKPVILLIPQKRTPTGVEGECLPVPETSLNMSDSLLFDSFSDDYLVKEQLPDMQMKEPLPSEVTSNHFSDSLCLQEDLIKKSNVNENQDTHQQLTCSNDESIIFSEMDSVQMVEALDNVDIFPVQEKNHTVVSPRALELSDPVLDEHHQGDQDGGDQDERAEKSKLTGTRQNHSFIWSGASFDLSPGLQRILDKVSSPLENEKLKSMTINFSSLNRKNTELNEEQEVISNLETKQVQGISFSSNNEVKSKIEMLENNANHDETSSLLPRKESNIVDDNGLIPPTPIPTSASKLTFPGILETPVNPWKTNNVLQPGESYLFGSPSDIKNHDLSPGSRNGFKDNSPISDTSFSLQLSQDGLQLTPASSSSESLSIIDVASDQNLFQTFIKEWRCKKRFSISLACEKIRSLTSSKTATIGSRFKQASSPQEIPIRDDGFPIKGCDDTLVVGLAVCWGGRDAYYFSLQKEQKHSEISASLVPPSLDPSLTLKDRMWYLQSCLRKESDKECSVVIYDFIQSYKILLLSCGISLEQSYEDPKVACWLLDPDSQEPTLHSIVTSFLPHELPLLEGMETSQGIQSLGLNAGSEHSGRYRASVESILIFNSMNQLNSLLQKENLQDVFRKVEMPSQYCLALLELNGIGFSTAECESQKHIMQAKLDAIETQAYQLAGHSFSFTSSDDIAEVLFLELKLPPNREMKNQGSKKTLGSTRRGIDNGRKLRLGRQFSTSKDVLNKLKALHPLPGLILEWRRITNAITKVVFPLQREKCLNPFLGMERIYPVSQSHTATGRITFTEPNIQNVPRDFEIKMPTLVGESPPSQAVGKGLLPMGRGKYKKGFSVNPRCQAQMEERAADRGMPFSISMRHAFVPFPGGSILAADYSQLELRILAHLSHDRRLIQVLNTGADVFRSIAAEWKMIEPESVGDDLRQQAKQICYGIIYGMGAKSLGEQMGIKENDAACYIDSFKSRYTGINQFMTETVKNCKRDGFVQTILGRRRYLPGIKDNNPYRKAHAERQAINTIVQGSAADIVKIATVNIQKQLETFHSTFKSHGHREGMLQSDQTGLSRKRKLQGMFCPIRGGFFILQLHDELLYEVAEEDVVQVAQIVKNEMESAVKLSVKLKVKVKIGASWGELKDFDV

In turn, `Nc1ccc(C#CCN(C(=O)Cc2ncc(C(F)(F)F)cc2C(F)(F)F)c2ccc(F)cc2)nn1` showed an AUC at 168 h in [1] of 14.7 µM·h. Also, the half-inhibitory concentration (IC50) in the series with HCT-116 [2] was 320 nM; in series [3], above 100000 nM; in series [4], 2150 nM; in series [7], 450 nM; on DNA polymerase theta [8], 940 nM; in the series on HCT-116 [11], above 15000 nM. At DNA polymerase theta [18], the IC50 was 0.55 nM. Also, in [5], the t1/2 turned out to be 24 min. In addition, the bioavailability in series [6] came to 66%. In addition, the Activity result in series [9], in series [10], in [13] and in [14] was “Non-Toxic” throughout. This molecule displayed an AUC in series [12] of 49.7 µM·h. The Vdss in [15] is 1.1 L/kg. Besides, in [16], the AUC at 24 h was 32.6 µM·h. The “f(Cave)” value in series [17] was found to be 107 nM.
